The first series concerns promoter region of the gene encoding human apoAI. Put plainly: Activity to enhance the expression of human apoAI (apoAI promoter-luciferase reporter in HepG2 cells). To be noted: HepG2 cells stably expressing apoAI promoter-luciferase reporter; compounds at 0 to 10 μg/mL, 24 hours incubation. The series is classed as cell-based. The procedure: The promoter region of the gene encoding human apoAI was isolated, and ligated upstream the structure gene of firefly luciferase to construct a reporter plasmid. The reporter plasmid and a marker plasmid conferring the neomycin resistance were co-infected to cell lines derived from human hepatoma, HepG2 cells, and the cell lines were incubated in a selection medium comprising DMEM medium containing 10% fetal calf serum supplemented with G418 (Final concentration: 0.7 mg/mL, Gibco) to give established strains that stably expressed the reporter molecule. The strains were seeded to a 96-well culture plates at a density of 50,000 cells per well, and incubated for 48 hours at 37° C. under an atmosphere of 5% carbon dioxide. […] The concentration of the compounds, which intensified the luciferase activity twice compared to that of control (DMSO without any compound of the invention added) was set as the minimal effective dose (MED).
In general terms: Reporter assays use an easily measured gene product as a stand-in for the process of interest.
Consider “2-(2-thiophen-3-yl-vinyl)benzothiazole [Ib-91]”, for which the “MED (minimum effective dose: concentration of the compound which intensified the luciferase activity twice compared to control)” value stood at 0.7 µg/mL.

As for `COc1cc(C=CC=Cc2ccccn2)ccc1OC(C)=O` [Ic-18, phenyl 2-methoxy-4-(4-pyridin-2-yl-buta-1,3-dienyl)acetate], the “MED (minimum effective dose: concentration of the compound which intensified the luciferase activity twice compared to control)” value is 1.9 µg/mL.

For `C(=Cc1ccccc1)Sc1ccccn1` [Id-4, 2-styrylsulfanil-pyridine], the “MED (minimum effective dose: concentration of the compound which intensified the luciferase activity twice compared to control)” value amounted to 1.0 µg/mL.

Turning to “2-phenyl-5-pyridin-2-yl-penta-2,4-diene nitrile [Ic-76]”, the “MED (minimum effective dose: concentration of the compound which intensified the luciferase activity twice compared to control)” value is 0.23 µg/mL.

`FC(F)(F)c1ccc(C=Cc2ccccn2)cc1` [Ib-9, 2-[2-(4-trifluorophenyl)vinyl]pyridine]: the “MED (minimum effective dose: concentration of the compound which intensified the luciferase activity twice compared to control)” value was 0.71 µg/mL.

System in a further series: not given
Test: not given
Conditions: not given
With `c1ccc(-c2ccc(-c3cnc4ccccc4n3)cc2)cc1` [Ia-10, 2-(biphenyl-4-yl)quinoxaline], the melting point (commonly the temperature of the solid-liquid transition) fell in the range of 126 to 127 °C.

For the compound `c1ccc2nc(-c3ccsc3)cnc2c1` [Ia-6, 2-(thiophen-3-yl)quinoxaline], the melting point lay in the range of 86 to 87 °C.

The compound `c1ccc2nc(-c3ccsc3)ccc2c1` [Ia-15, 2-(thiophen-3-yl)quinoline] showed a melting point of 132 to 133 °C.

Consider `COc1ccc(-c2cnc3ccccc3n2)cc1` [Ia-3, 2-(4-methoxyphenyl)quinoxaline], for which the melting point lay within 101 to 102 °C.

Turning to `Clc1ccc(-c2ccc3ccccc3n2)cc1` [Ia-16, 2-(4-chlorophenyl)quinoline], the melting point lay within 113 to 115 °C.

Regarding `c1ccc(-c2ccc(-c3ccc4ccccc4n3)cc2)cc1` [Ia-12, 2-(biphenyl-4-yl)quinoline], the melting point lay within 180 to 182 °C.

These data come from patent US8053445B2, “Utilities of olefin derivatives” (Shionogi & Co., Ltd., priority 2001, dated 2011).
